Results on six molecules are retold here after patent US12679878B2, “CRF2 receptor agonists and their use in therapy” (SANOFI, priority 2020, dated 2026).

Where two headings read alike, the source gives them in different places. Starred links: 1 amine or outer side, 2 acyl side, 3 side chain; linkers in the order of their positions; H or OH if unused. Non-standard residues stand in square brackets, D forms with d. Residues, ends and D or L forms follow the SMILES beside them. Groups on a side chain read outwards from the residue. *: point of attachment. C18 diacid = O=C(O)CCCCCCCCCCCCCCCCC(=O)*; γGlu = O=C(O)[C@H](CCC(=O)[*:2])N[*:1]; AEEA = NCCOCCOCC(=O)O; Aib = CC(C)(N)C(=O)O

This assay concerns the target T1, human CRF2α receptor (Homo sapiens, UniProt Q13324).
T1 construct: expressed in transfected cells; host or cells: TeloHEAC
T1 sequence (Q13324 1-411): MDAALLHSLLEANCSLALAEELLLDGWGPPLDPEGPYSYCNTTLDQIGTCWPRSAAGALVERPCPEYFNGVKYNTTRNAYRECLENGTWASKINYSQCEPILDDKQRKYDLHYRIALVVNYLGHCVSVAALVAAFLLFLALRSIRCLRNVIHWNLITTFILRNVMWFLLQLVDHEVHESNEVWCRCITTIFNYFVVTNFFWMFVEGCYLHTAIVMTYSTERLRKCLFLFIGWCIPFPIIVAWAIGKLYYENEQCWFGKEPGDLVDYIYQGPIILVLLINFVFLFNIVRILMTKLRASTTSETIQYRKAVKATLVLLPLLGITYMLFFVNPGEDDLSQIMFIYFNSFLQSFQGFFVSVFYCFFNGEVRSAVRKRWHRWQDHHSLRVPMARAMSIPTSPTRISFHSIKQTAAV
Nature of the assay: cAMP agonism at human CRF2 α receptor in TeloHEAC cells (Example 7). To be noted: cAMP HTRF, TeloHEAC cells stably expressing human CRF2 α. The format is cell-based. The procedure, abridged:
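Percent activation was referenced to 1000 nM UCN2 (100%), and EC50 values taken as concentrations giving half of maximal response. The read-out was a homogeneous time-resolved fluorescence cAMP kit, fluorescence ratio 665/620 nm. Thawed cells (2000/well) saw compound for 30 min at RT in buffer with 2 mM IBMX and 0%/0.1% HSA.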
In general terms: In TR-FRET formats the signal depends on donor and acceptor labels being close together.

[1] abbreviates: 0% HSA, read-out: EC50 [nM], 0% HSA.
Setting [2] is: 0.1% HSA, read-out: EC50 [nM], 0.1% HSA.

As to `CC[C@H](C)[C@H](N)C(=O)N[C@H](C(=O)N[C@@H](CC(C)C)C(=O)N[C@@H](CO)C(=O)N[C@@H](CC(C)C)C(=O)N[C@@H](CC(=O)O)C(=O)N[C@H](C(=O)N1CCC[C@H]1C(=O)N[C@H](C(=O)N[C@@H](CCCCN)C(=O)N[C@@H](CC(C)C)C(=O)N[C@@H](CCCCNC(=O)COCCOCCNC(=O)COCCOCCNC(=O)CC[C@H](NC(=O)CCCCCCCCCCCCCCCCC(=O)O)C(=O)O)C(=O)N[C@@H](CCC(N)=O)C(=O)N[C@H](C(=O)N[C@@H](CC(C)C)C(=O)N[C@@H](CC(C)C)C(=O)N[C@@H](CCCCN)C(=O)N[C@@H](CCC(N)=O)C(=O)N[C@@H](CCC(=O)O)C(=O)N[C@@H](CCCNC(=N)N)C(=O)N[C@@H](CCC(N)=O)C(=O)N[C@@H](CCCCN)C(=O)NC(C)(C)C(=O)N[C@@H](CCC(N)=O)C(=O)N[C@@H](CCCNC(=N)N)C(=O)N[C@@H](CCC(=O)O)C(=O)N[C@@H](CCC(N)=O)C(=O)N[C@@H](C)C(=O)N[C@@H](CCC(=O)O)C(=O)N[C@@H](CCCCN)C(=O)N[C@@H](CC(N)=O)C(=O)N[C@@H](CCCCN)C(=O)N[C@@H](CCC(N)=O)C(=O)N[C@H](C(=O)N[C@@H](CC(C)C)C(=O)N[C@@H](CCC(=O)O)C(=O)N[C@@H](CCCNC(=N)N)C(=O)N[C@H](C(N)=O)C(C)C)[C@@H](C)CC)[C@@H](C)CC)[C@@H](C)CC)C(C)C)C(C)C` [compound 115] (H-IVLSLDVPIKLK([AEEA-AEEA-γGlu-C18 diacid])QILLKQERQK[Aib]QREQAEKNKQILERV-NH2; N-terminus assumed), the EC50 (in general, the concentration needed to bring the measured effect to its halfway point) under setting [1] was 2.77 nM.

For the molecule `CC[C@H](C)[C@H](N)C(=O)N[C@H](C(=O)N[C@@H](CC(C)C)C(=O)N[C@@H](CO)C(=O)N[C@@H](CC(C)C)C(=O)N[C@@H](CC(=O)O)C(=O)N[C@H](C(=O)N1CCC[C@H]1C(=O)N[C@H](C(=O)N[C@@H](CCCCN)C(=O)N[C@@H](CC(C)C)C(=O)N[C@@H](CCCCNC(=O)COCCOCCNC(=O)COCCOCCNC(=O)CC[C@H](NC(=O)CCCCCCCCCCCCCCCCC(=O)O)C(=O)O)C(=O)N[C@@H](CCC(N)=O)C(=O)N[C@H](C(=O)N[C@@H](CC(C)C)C(=O)N[C@@H](CC(C)C)C(=O)N[C@@H](CCCCN)C(=O)N[C@@H](CCC(N)=O)C(=O)N[C@@H](CCC(=O)O)C(=O)N[C@@H](CCCNC(=N)N)C(=O)N[C@@H](CCC(N)=O)C(=O)N[C@@H](CCCCN)C(=O)N[C@@H](CCCCN)C(=O)N[C@@H](CCC(N)=O)C(=O)N[C@@H](CCCNC(=N)N)C(=O)N[C@@H](CCC(=O)O)C(=O)N[C@@H](CCC(N)=O)C(=O)N[C@@H](C)C(=O)N[C@@H](CCC(=O)O)C(=O)N[C@@H](CCCCN)C(=O)N[C@@H](CC(N)=O)C(=O)N[C@@H](CCCCN)C(=O)N[C@@H](CCC(N)=O)C(=O)N[C@H](C(=O)N[C@@H](CC(C)C)C(=O)N[C@@H](CCC(=O)O)C(=O)N[C@@H](CCC(N)=O)C(=O)N[C@H](C(N)=O)C(C)C)[C@@H](C)CC)[C@@H](C)CC)[C@@H](C)CC)C(C)C)C(C)C` [compound 120] (H-IVLSLDVPIKLK([AEEA-AEEA-γGlu-C18 diacid])QILLKQERQKKQREQAEKNKQILEQV-NH2), the EC50 under setting [1] amounted to 1.27 nM and the EC50 under setting [2] stood at 61.1 nM.

Take `CC[C@H](C)[C@H](N)C(=O)N[C@H](C(=O)N[C@@H](CC(C)C)C(=O)N[C@@H](CO)C(=O)N[C@@H](CC(C)C)C(=O)N[C@@H](CC(=O)O)C(=O)N[C@@H](C(=O)N1CCC[C@H]1C(=O)N[C@H](C(=O)N[C@@H](CCCCN)C(=O)N[C@@H](CC(C)C)C(=O)N[C@@H](CCCCNC(=O)COCCOCCNC(=O)COCCOCCNC(=O)CC[C@H](NC(=O)CCCCCCCCCCCCCCCCC(=O)O)C(=O)O)C(=O)N[C@@H](CCC(N)=O)C(=O)N[C@H](C(=O)N[C@@H](CC(C)C)C(=O)N[C@@H](CC(C)C)C(=O)N[C@@H](CCC(=O)O)C(=O)N[C@@H](CCC(N)=O)C(=O)N[C@@H](C)C(=O)N[C@@H](CCCCN)C(=O)N[C@@H](CCC(N)=O)C(=O)N[C@@H](CCCCN)C(=O)NC(C)(C)C(=O)N[C@@H](CCC(N)=O)C(=O)N[C@@H](CCCNC(=N)N)C(=O)N[C@@H](CCC(=O)O)C(=O)N[C@@H](CCC(N)=O)C(=O)N[C@@H](C)C(=O)N[C@@H](CCC(=O)O)C(=O)N[C@@H](CCCCN)C(=O)N[C@@H](CC(N)=O)C(=O)N[C@@H](CCCCN)C(=O)N[C@@H](CCCNC(=N)N)C(=O)N[C@H](C(=O)N[C@@H](CC(C)C)C(=O)N[C@@H](CCC(=O)O)C(=O)N[C@@H](CCCNC(=N)N)C(=O)N[C@H](C(N)=O)C(C)C)[C@@H](C)CC)[C@@H](C)CC)[C@@H](C)CC)C(C)C)C(C)C` [compound 127] (H-IVLSLD[dV]PIKLK([AEEA-AEEA-γGlu-C18 diacid])QILLEQAKQK[Aib]QREQAEKNKRILERV-NH2; N-terminus assumed): the EC50 runs as follows: under setting [1], 0.16 nM; under setting [2], 5.14 nM.

Take `CC[C@H](C)[C@H](N)C(=O)N[C@H](C(=O)N[C@@H](CC(C)C)C(=O)N[C@@H](CO)C(=O)N[C@@H](CC(C)C)C(=O)N[C@@H](CC(=O)O)C(=O)N[C@@H](C(=O)N1CCC[C@H]1C(=O)N[C@H](C(=O)N[C@@H](CCCCN)C(=O)N[C@@H](CC(C)C)C(=O)N[C@@H](CCCCNC(=O)COCCOCCNC(=O)COCCOCCNC(=O)CC[C@H](NC(=O)CCCCCCCCCCCCCCCCC(=O)O)C(=O)O)C(=O)N[C@@H](CCC(N)=O)C(=O)N[C@H](C(=O)N[C@@H](CC(C)C)C(=O)N[C@@H](CC(C)C)C(=O)N[C@@H](CCCCN)C(=O)N[C@@H](CCC(N)=O)C(=O)N[C@@H](C)C(=O)N[C@@H](CCCNC(=N)N)C(=O)N[C@@H](CCC(N)=O)C(=O)N[C@@H](CCCCN)C(=O)NC(C)(C)C(=O)N[C@@H](CCC(N)=O)C(=O)N[C@@H](CCCNC(=N)N)C(=O)N[C@@H](CCC(=O)O)C(=O)N[C@@H](CCC(N)=O)C(=O)N[C@@H](C)C(=O)N[C@@H](CCC(=O)O)C(=O)N[C@@H](CCCCN)C(=O)N[C@@H](CC(N)=O)C(=O)N[C@@H](CCCCN)C(=O)N[C@@H](CCCNC(=N)N)C(=O)N[C@H](C(=O)N[C@@H](CC(C)C)C(=O)N[C@@H](CCC(=O)O)C(=O)N[C@@H](CCCNC(=N)N)C(=O)N[C@H](C(N)=O)C(C)C)[C@@H](C)CC)[C@@H](C)CC)[C@@H](C)CC)C(C)C)C(C)C` [compound 128] (H-IVLSLD[dV]PIKLK([AEEA-AEEA-γGlu-C18 diacid])QILLKQARQK[Aib]QREQAEKNKRILERV-NH2; N-terminus assumed): the EC50 under setting [1] was found to be 0.64 nM and the EC50 under setting [2] is 20.1 nM.

On to `CC[C@H](C)[C@H](N)C(=O)N[C@H](C(=O)N[C@@H](CC(C)C)C(=O)N[C@@H](CO)C(=O)N[C@@H](CC(C)C)C(=O)N[C@@H](CC(=O)O)C(=O)N[C@@H](C(=O)N1CCC[C@H]1C(=O)N[C@H](C(=O)N[C@@H](CCCCN)C(=O)N[C@@H](CC(C)C)C(=O)N[C@@H](CCCCNC(=O)COCCOCCNC(=O)COCCOCCNC(=O)CC[C@H](NC(=O)CCCCCCCCCCCCCCCCC(=O)O)C(=O)O)C(=O)N[C@@H](CCC(N)=O)C(=O)N[C@H](C(=O)N[C@@H](CC(C)C)C(=O)N[C@@H](CC(C)C)C(=O)N[C@@H](CCC(=O)O)C(=O)N[C@@H](CCC(N)=O)C(=O)N[C@@H](CCC(=O)O)C(=O)N[C@@H](CCCNC(=N)N)C(=O)N[C@@H](CCC(N)=O)C(=O)N[C@@H](CCCCN)C(=O)NC(C)(C)C(=O)N[C@@H](CCC(N)=O)C(=O)N[C@@H](CCCNC(=N)N)C(=O)N[C@@H](CCC(=O)O)C(=O)N[C@@H](CCC(N)=O)C(=O)N[C@@H](C)C(=O)N[C@@H](CCC(=O)O)C(=O)N[C@@H](CCCCN)C(=O)N[C@@H](CC(N)=O)C(=O)N[C@@H](CCCCN)C(=O)N[C@@H](CCC(N)=O)C(=O)N[C@H](C(=O)N[C@@H](CC(C)C)C(=O)N[C@@H](C)C(=O)N[C@@H](CCC(N)=O)C(=O)N[C@H](C(N)=O)C(C)C)[C@@H](C)CC)[C@@H](C)CC)[C@@H](C)CC)C(C)C)C(C)C` [compound 129] (H-IVLSLD[dV]PIKLK([AEEA-AEEA-γGlu-C18 diacid])QILLEQERQK[Aib]QREQAEKNKQILAQV-NH2), for which the EC50 is, setting by setting: under setting [1], 0.15 nM; under setting [2], 3.02 nM.

As to `CC[C@H](C)[C@H](N)C(=O)N[C@H](C(=O)N[C@@H](CC(C)C)C(=O)N[C@@H](CO)C(=O)N[C@@H](CC(C)C)C(=O)N[C@@H](CC(=O)O)C(=O)N[C@@H](C(=O)N1CCC[C@H]1C(=O)N[C@H](C(=O)N[C@@H](CCCCN)C(=O)N[C@@H](CC(C)C)C(=O)N[C@@H](CCCCNC(=O)COCCOCCNC(=O)COCCOCCNC(=O)CC[C@H](NC(=O)CCCCCCCCCCCCCCCCC(=O)O)C(=O)O)C(=O)N[C@@H](CCC(N)=O)C(=O)N[C@H](C(=O)N[C@@H](CC(C)C)C(=O)N[C@@H](CC(C)C)C(=O)N[C@@H](CCCCN)C(=O)N[C@@H](CCC(N)=O)C(=O)N[C@@H](CCC(=O)O)C(=O)N[C@@H](CCCNC(=N)N)C(=O)N[C@@H](CCC(N)=O)C(=O)N[C@@H](CCCCN)C(=O)NC(C)(C)C(=O)N[C@@H](CCC(N)=O)C(=O)N[C@@H](CCCNC(=N)N)C(=O)N[C@@H](CCC(=O)O)C(=O)N[C@@H](CCC(N)=O)C(=O)N[C@@H](C)C(=O)N[C@@H](CCC(=O)O)C(=O)N[C@@H](CCCCN)C(=O)N[C@@H](CC(N)=O)C(=O)N[C@@H](CCCCN)C(=O)N[C@@H](CCC(N)=O)C(=O)N[C@H](C(=O)N[C@@H](CC(C)C)C(=O)N[C@@H](CCC(=O)O)C(=O)N[C@@H](CCCNC(=N)N)C(=O)N[C@H](C(N)=O)C(C)C)[C@@H](C)CC)[C@@H](C)CC)[C@@H](C)CC)C(C)C)C(C)C` [compound 133] (H-IVLSLD[dV]PIKLK([AEEA-AEEA-γGlu-C18 diacid])QILLKQERQK[Aib]QREQAEKNKQILERV-NH2; N-terminus assumed), the EC50 under setting [1] stood at 0.09 nM and the 50% effective concentration (EC50) under setting [2] came out at 3.19 nM.
